# Test system: peptide-specific IgG in sera of cancer patients and healthy donors
# Experiment: Measurement of anti-peptide IgG in plasma by LUMINEX multiplexed flow cytometric assay
# Format: binding, human
# In short: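 Plasma diluted 1/100 incubated with peptide-coupled colour-coded beads 2 h at RT, then biotinylated goat anti-human IgG (γ-chain) 1 h and streptavidin-PE 30 min; fluorescence read by multiplexed flow cytometry, >100 counted significant. Specificity checked by three rounds of absorption on corresponding versus irrelevant SCCA peptide.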
sequence,measurement,setting,value
"QFQKLLTEF (SCCA 84-92 peptide) [SCCA-derived peptide, position 84-92]",Total: healthy donors with significant peptide-reactive IgG / donors tested,"10 healthy donors, significant when fluorescence intensity exceeded 100 at 1/100 dilution",1/10
same,Total: cancer patients with significant peptide-reactive IgG / patients tested,"71 cancer patients, significant when fluorescence intensity exceeded 100 at 1/100 dilution",14/71
same,Fluorescence intesity,"serum of Breast Ca. patient #36, 1:100 dilution",95
same,Fluorescence intesity,"serum of Breast Ca. patient #37, 1:100 dilution",0
same,Fluorescence intesity,"serum of Breast Ca. patient #38, 1:100 dilution",31
same,Fluorescence intesity,"serum of Breast Ca. patient #39, 1:100 dilution",34
same,Fluorescence intesity,"serum of Breast Ca. patient #40, 1:100 dilution",5
same,Fluorescence intesity,"serum of Breast Ca. patient #41, 1:100 dilution",182
same,Fluorescence intesity,"serum of Breast Ca. patient #42, 1:100 dilution",11
same,Fluorescence intesity,"serum of Breast Ca. patient #43, 1:100 dilution",26
same,Fluorescence intesity,"serum of Breast Ca. patient #44, 1:100 dilution",20
same,Fluorescence intesity,"serum of Breast Ca. patient #45, 1:100 dilution",39
same,Fluorescence intesity,"serum of Colon Ca. patient #66, 1:100 dilution",0
same,Fluorescence intesity,"serum of Colon Ca. patient #67, 1:100 dilution",47
same,Fluorescence intesity,"serum of Colon Ca. patient #68, 1:100 dilution",0
same,Fluorescence intesity,"serum of Colon Ca. patient #69, 1:100 dilution",0
same,Fluorescence intesity,"serum of Colon Ca. patient #70, 1:100 dilution",0
same,Fluorescence intesity,"serum of Colon Ca. patient #71, 1:100 dilution",8
same,Fluorescence intesity,"serum of Gastric Ca. patient #56, 1:100 dilution",18
same,Fluorescence intesity,"serum of Gastric Ca. patient #57, 1:100 dilution",7
same,Fluorescence intesity,"serum of Gastric Ca. patient #58, 1:100 dilution",0
same,Fluorescence intesity,"serum of Gastric Ca. patient #59, 1:100 dilution",118
same,Fluorescence intesity,"serum of Gastric Ca. patient #60, 1:100 dilution",0
same,Fluorescence intesity,"serum of Gastric Ca. patient #61, 1:100 dilution",102
same,Fluorescence intesity,"serum of Gastric Ca. patient #62, 1:100 dilution",0
same,Fluorescence intesity,"serum of Gastric Ca. patient #63, 1:100 dilution",0
same,Fluorescence intesity,"serum of Gastric Ca. patient #64, 1:100 dilution",7
same,Fluorescence intesity,"serum of Gastric Ca. patient #65, 1:100 dilution",0
same,Fluorescence intesity,"serum of Healthy Donor #1, 1:100 dilution",0
same,Fluorescence intesity,"serum of Healthy Donor #2, 1:100 dilution",79
same,Fluorescence intesity,"serum of Healthy Donor #3, 1:100 dilution",0
same,Fluorescence intesity,"serum of Healthy Donor #4, 1:100 dilution",0
same,Fluorescence intesity,"serum of Healthy Donor #5, 1:100 dilution",0
same,Fluorescence intesity,"serum of Healthy Donor #6, 1:100 dilution",0
same,Fluorescence intesity,"serum of Healthy Donor #7, 1:100 dilution",0
same,Fluorescence intesity,"serum of Healthy Donor #8, 1:100 dilution",332
same,Fluorescence intesity,"serum of Healthy Donor #9, 1:100 dilution",33
same,Fluorescence intesity,"serum of Healthy Donor #10, 1:100 dilution",0
same,Fluorescence intesity,"serum of Pancreas Ca. patient #46, 1:100 dilution",0
same,Fluorescence intesity,"serum of Pancreas Ca. patient #47, 1:100 dilution",3
same,Fluorescence intesity,"serum of Pancreas Ca. patient #48, 1:100 dilution",344
same,Fluorescence intesity,"serum of Pancreas Ca. patient #49, 1:100 dilution",0
same,Fluorescence intesity,"serum of Pancreas Ca. patient #50, 1:100 dilution",0
same,Fluorescence intesity,"serum of Pancreas Ca. patient #51, 1:100 dilution",0
same,Fluorescence intesity,"serum of Pancreas Ca. patient #52, 1:100 dilution",108
same,Fluorescence intesity,"serum of Pancreas Ca. patient #53, 1:100 dilution",0
same,Fluorescence intesity,"serum of Pancreas Ca. patient #54, 1:100 dilution",13
same,Fluorescence intesity,"serum of Pancreas Ca. patient #55, 1:100 dilution",0
same,Fluorescence intesity,"serum of Uterine cervical Ca. patient #1, 1:100 dilution",20
same,Fluorescence intesity,"serum of Uterine cervical Ca. patient #2, 1:100 dilution",2
same,Fluorescence intesity,"serum of Uterine cervical Ca. patient #3, 1:100 dilution",0
same,Fluorescence intesity,"serum of Uterine cervical Ca. patient #4, 1:100 dilution",29
same,Fluorescence intesity,"serum of Uterine cervical Ca. patient #5, 1:100 dilution",15
same,Fluorescence intesity,"serum of Uterine cervical Ca. patient #6, 1:100 dilution",922
same,Fluorescence intesity,"serum of Uterine cervical Ca. patient #7, 1:100 dilution",12
same,Fluorescence intesity,"serum of Uterine cervical Ca. patient #8, 1:100 dilution",28
same,Fluorescence intesity,"serum of Uterine cervical Ca. patient #9, 1:100 dilution",67
same,Fluorescence intesity,"serum of Uterine cervical Ca. patient #10, 1:100 dilution",15
same,Fluorescence intesity,"serum of Uterine cervical Ca. patient #11, 1:100 dilution",23
same,Fluorescence intesity,"serum of Uterine cervical Ca. patient #12, 1:100 dilution",35
same,Fluorescence intesity,"serum of Uterine cervical Ca. patient #13, 1:100 dilution",23
same,Fluorescence intesity,"serum of Uterine cervical Ca. patient #14, 1:100 dilution",20
same,Fluorescence intesity,"serum of Uterine cervical Ca. patient #15, 1:100 dilution",116
same,Fluorescence intesity,"serum of Uterine cervical Ca. patient #16, 1:100 dilution",182
same,Fluorescence intesity,"serum of Uterine cervical Ca. patient #17, 1:100 dilution",56
same,Fluorescence intesity,"serum of Uterine cervical Ca. patient #18, 1:100 dilution",49
same,Fluorescence intesity,"serum of Uterine cervical Ca. patient #19, 1:100 dilution",62
same,Fluorescence intesity,"serum of Uterine cervical Ca. patient #20, 1:100 dilution",106
same,Fluorescence intesity,"serum of Uterine cervical Ca. patient #21, 1:100 dilution",19
same,Fluorescence intesity,"serum of Uterine cervical Ca. patient #22, 1:100 dilution",20
same,Fluorescence intesity,"serum of Uterine cervical Ca. patient #23, 1:100 dilution",57
same,Fluorescence intesity,"serum of Uterine cervical Ca. patient #24, 1:100 dilution",1819
same,Fluorescence intesity,"serum of Uterine cervical Ca. patient #25, 1:100 dilution",17
same,Fluorescence intesity,"serum of Uterine cervical Ca. patient #26, 1:100 dilution",128
same,Fluorescence intesity,"serum of Uterine cervical Ca. patient #27, 1:100 dilution",28
same,Fluorescence intesity,"serum of Uterine cervical Ca. patient #28, 1:100 dilution",139
same,Fluorescence intesity,"serum of Uterine cervical Ca. patient #29, 1:100 dilution",14
same,Fluorescence intesity,"serum of Uterine cervical Ca. patient #30, 1:100 dilution",33
same,Fluorescence intesity,"serum of Uterine cervical Ca. patient #31, 1:100 dilution",108
same,Fluorescence intesity,"serum of Uterine cervical Ca. patient #32, 1:100 dilution",18
same,Fluorescence intesity,"serum of Uterine cervical Ca. patient #33, 1:100 dilution",141
same,Fluorescence intesity,"serum of Uterine cervical Ca. patient #34, 1:100 dilution",15
same,Fluorescence intesity,"serum of Uterine cervical Ca. patient #35, 1:100 dilution",18
